From patent publication US20140171316A1, “ANTHRANILAMIDE COMPOUNDS AND THEIR USE AS PESTICIDES” (BASF SE, priority 2011, published 2014)

How the values were obtained:
Type in all cases: in vivo
[1] = tested on: Aphis craccivora; assay: Cowpea aphid (Aphis craccivora) spray test on potted cowpea plants; details: sprayed cowpea plants, assessed after 72 hours, read-out: mortality in comparison with untreated controls
Method: The active compound was dissolved at the desired concentration in a mixture of 1:1 (vol:vol) distilled water:acetone. Surfactant (Alkamuls® EL 620) is added at a rate of 0.1% (vol/vol). The test solution was prepared at the day of use.
Potted cowpea plants were colonized with approximately 50-100 aphids of various stages by manually transferring a leaf tissue cut from infested plant 24 hours before application. Plants were sprayed after the pest population has been recorded. Treated plants were maintained on light carts at about 28° C. Percent mortality was assessed after 72 hours.

[2] = tested on: Ceratitis capitata; assay: Mediterranean fruitfly (Ceratitis capitata) microtiter plate insect diet test; details: 120 h, sprayed onto insect diet, 5 days, read-out: mortality in comparison with untreated controls (egg and larval mortality)
Method: For evaluating control of Mediterranean fruitfly (Ceratitis capitata) the test unit consisted of microtiter plates containing an insect diet and 50-80 C. capitata eggs.
The compounds were formulated using a solution containing 75% v/v water and 25% v/v DMSO. Different concentrations of formulated compounds were sprayed onto the insect diet at 5 μl, using a custom built micro atomizer, at two replications.
(§1) After application, microtiter plates were incubated at about 28±1° C. and about 80±5% relative humidity for 5 days. Egg and larval mortality was then visually assessed.

[3] = tested on: Dichromothrips corbetti; assay: Orchid thrips (Dichromothrips corbetti) floral-immersion test; details: dipped orchid flowers, adult thrips, 72 hours after treatment, read-out: mortality in comparison with untreated controls
Method: Dichromothrips corbetti adults used for bioassay were obtained from a colony maintained continuously under laboratory conditions. For testing purposes, the test compound was diluted in a 1:1 mixture of acetone:water (vol:vol), plus 0.01% vol/vol Alkamuls® EL 620 surfactant.
Thrips potency of each compound was evaluated by using a floral-immersion technique. Plastic petri dishes were used as test arenas. All petals of individual, intact orchid flowers were dipped into treatment solution and allowed to dry. Treated flowers were placed into individual petri dishes along with about 20 adult thrips. The petri dishes were then covered with lids. All test arenas were held under continuous light and a temperature of about 28° C. for duration of the assay. After 3 days, the numbers of live thrips were counted on each flower, and along inner walls of each petri dish. The percent mortality was recorded 72 hours after treatment.

[4] = tested on: Megoura viciae; assay: Vetch aphid (Megoura viciae) broad bean leaf disk test; details: foliar, 120 h, sprayed broad bean leaf disks, adult aphids, 5 days, read-out: mortality in comparison with untreated controls
Method: For evaluating control of vetch aphid (Megoura viciae) through contact or systemic means the test unit consisted of 24-well-microtiter plates containing broad bean leaf disks.
The compounds were formulated using a solution containing 75% v/v water and 25% v/v DMSO. Different concentrations of formulated compounds were sprayed onto the leaf disks at 2.5 μl, using a custom built micro atomizer, at two replications.
After application, the leaf disks were air-dried and 5-8 adult aphids placed on the leaf disks inside the microtiter plate wells. The aphids were then allowed to suck on the treated leaf disks and incubated at about 23±1° C. and about 50±5% relative humidity for 5 days. Aphid mortality and fecundity was then visually assessed.

[5] = tested on: Heliothis virescens; assay: Tobacco budworm (Heliothis virescens) microtiter plate insect diet test; details: 120 h, sprayed onto insect diet, 5 days, read-out: mortality in comparison with untreated controls (egg and larval mortality)
Method: For evaluating control of tobacco budworm (Heliothis virescens) the test unit consisted of 96-well-microtiter plates containing an insect diet and 15-25 H. virescens eggs.
The compounds were formulated using a solution containing 75% v/v water and 25% v/v DMSO. Different concentrations of formulated compounds were sprayed onto the insect diet at 10 μl, using a custom built micro atomizer, at two replications.
as §1

[6] = tested on: Anthonomus grandis; assay: Boll weevil (Anthonomus grandis) microtiter plate insect diet test; details: 120 h, sprayed onto insect diet, 5 days, read-out: mortality in comparison with untreated controls (egg and larval mortality)
Method: For evaluating control of boll weevil (Anthonomus grandis) the test unit consisted of 24-well-microtiter plates containing an insect diet and 20-30 A. grandis eggs.
The compounds were formulated using a solution containing 75% v/v water and 25% v/v DMSO. Different concentrations of formulated compounds were sprayed onto the insect diet at 20 μl, using a custom built micro atomizer, at two replications.
After application, microtiter plates were incubated at about 23±1° C. and about 50±5% relative humidity for 5 days. Egg and larval mortality was then visually assessed.

[7] = tested on: Myzus persicae; assay: Green peach aphid (Myzus persicae) spray test on bell pepper plants; details: 120 h, sprayed infested bell pepper plants, after 5 days, read-out: mortality in comparison with untreated controls
Source text: The active compounds were formulated in cyclohexanone as a 10,000 ppm solution supplied in tubes. The tubes were inserted into an automated electrostatic sprayer equipped with an atomizing nozzle and they served as stock solutions for which lower dilutions were made in 50% acetone:50% water (v/v). A nonionic surfactant (Kinetic®) was included in the solution at a volume of 0.01% (v/v).
Bell pepper plants at the first true-leaf stage were infested prior to treatment by placing heavily infested leaves from the main colony on top of the treatment plants. Aphids were allowed to transfer overnight to accomplish an infestation of 30-50 aphids per plant and the host leaves were removed. The infested plants were then sprayed by an automated electrostatic plant sprayer equipped with an atomizing spray nozzle. The plants were dried in the sprayer fume hood, removed, and then maintained in a growth room under fluorescent lighting in a 24-hr photoperiod at about 25° C. and about 20-40% relative humidity. Aphid mortality on the treated plants, relative to mortality on untreated control plants, was determined after 5 days.

CNC(=O)c1cc(/C=N/OC)cc(C)c1NC(=O)c1cnn(CC(F)(F)F)c1-c1ncccc1Cl [Compound 1-1, 5-(3-chloro-2-pyridyl)-N-[4-[(E)-methoxyiminomethyl]-2-methyl-6-(methylcarbamoyl)phenyl]-1-(2,2,2-trifluoroethyl)pyrazole-4-carboxamide]
> 75%: mortality at 500 ppm [1] | mortality at 2500 ppm [2] | mortality at 500 ppm [3] | mortality at 2500 ppm [4] | mortality at 2500 ppm [5] | mortality at 2500 ppm [6] | mortality at 2500 ppm [7]

CNC(=O)c1cc(-n2cncn2)cc(C)c1NC(=O)c1cnn(CC(F)(F)F)c1-c1ncccc1Cl [Compound 1-2, 5-(3-chloro-2-pyridyl)-N-[2-methyl-6-(methylcarbamoyl)-4-(1,2,4-triazol-1-yl)phenyl]-1-(2,2,2-trifluoroethyl)pyrazole-4-carboxamide]
> 75%: mortality at 500 ppm [1] | mortality at 2500 ppm [2] | mortality at 500 ppm [3] | mortality at 2500 ppm [4] | mortality at 2500 ppm [5] | mortality at 2500 ppm [6] | mortality at 2500 ppm [7]
